Reference: patent US11318118B1, “Methods and compositions for treating SARS-CoV-2 infection using carboxyamidotriazole orotate” (TACTICAL THERAPEUTICS INC., priority 2021, dated 2022)
pEC50, pIC50: −log10 of the molar value. Like-named read-outs stand apart in the source and are kept apart here.

Columns and labels:
plasma cytokines = experiment: Luminex (Milliplex MAP Human Cytokine/Chemokine Magnetic Bead Panel) testing of plasma specimens from Phase I cancer patients given CTO; type: in vivo; parameters: key to VEGF plasma level / IL-15 plasma level / IL-17A plasma level / IL-1RA plasma level / IL-2 plasma level / IL-4 plasma level / IL-6 plasma level / IL-8 plasma level / IP-10 plasma level / MIP1a plasma level / RANTES plasma level / EGF plasma level / **IL-1β plasma level (second entry of the list) / **TNFα plasma level / GM-CSF plasma level / IFNγ plasma level / IL-1β plasma level (first entry of the list) / IL-12p40 plasma level / IL-12p70 plasma level / IL-13 plasma level: + increased; − decreased
Protocol: In a Phase I trial of CTO testing the safety and tolerability of CTO in cancer patients, Plasa samples were obtained from three patients after administration of different doses of CTO daily as follows: 1) NSCLC Patient 002-46 (CTO 555 mg/m2), 2) NSCLC Patient 002-50 (CTO 427 mg/m2) and 3) Ovarian Cancer Patient 002-53 (CTO 427 mg/m2) The levels of cytokines were measured by using the HCYTMAG-60K-PX30/Milliplex MAP Human Cytokine/Chemokine Magnetic Bead Panel from Milliplex, USA.
Table 1. Target Cytokines in Luminex Panel Testing of Plasma Specimens-Results
Expressed as Cytokine (+ increased) or (− decreased)

SARS-CoV-2 infection = type: in vivo; conditions: one patient, CTO 600 mg daily oral, on the second day
SARS-CoV-2 = type: cell-based; conditions: Vero E6 cells
[1] = tested on: non-infected Vero E6 cells; conditions: read-out: EC 50 in non-infected Vero E6 cells; cell viability, Cell Titer Glo
[2] = CTO 427-555 mg/m2 daily, three cancer patients, versus baseline
[3] = CTO doses ranging from 427 mg/m2 to 555 mg/m2

NC(=O)c1nnn(Cc2cc(Cl)c(C(=O)c3ccc(Cl)cc3)c(Cl)c2)c1N.O=C(O)c1cc(=O)[nH]c(=O)[nH]1 [CTO]
**IL-1β plasma level (second entry of the list) (plasma cytokines; [2]): − | **TNFα plasma level (plasma cytokines; [2]): − | EGF plasma level (plasma cytokines; [2]): + | GM-CSF plasma level (plasma cytokines; [2]): − | IFNα2 plasma level (plasma cytokines; [2]): —I— | IFNγ plasma level (plasma cytokines; [2]): − | IL-1RA plasma level (plasma cytokines; [2]): − | IL-1β plasma level (first entry of the list) (plasma cytokines; [2]): + | IL-2 plasma level (plasma cytokines; [2]): − | IL-4 plasma level (plasma cytokines; [2]): − | IL-6 plasma level (plasma cytokines; [2]): − | IL-8 plasma level (plasma cytokines; [2]): − | IL-12p40 plasma level (plasma cytokines; [2]): + | IL-12p70 plasma level (plasma cytokines; [2]): − | IL-13 plasma level (plasma cytokines; [2]): − | IL-15 plasma level (plasma cytokines; [2]): − | IL-17A plasma level (plasma cytokines; [2]): − | IP-10 plasma level (plasma cytokines; [2]): − | MIP1a plasma level (plasma cytokines; [2]): − | RANTES plasma level (plasma cytokines; [2]): + | VEGF plasma level (plasma cytokines; [2]): − | levels of cytokines including EGF, IFN α2, IL-1β, IL-12p40 (plasma cytokines; [3]): increase | levels of several cytokines including VEGF, GM-CSF, INF-γ, IL-2, IL-12p70, IL-13, IL-15, IL-17a, IL-1RA, IL-1α, IL-2, ILl-4, IL-6, IL-8, il-10, MIP1-α. IL-1 TNF-α (plasma cytokines; [3]): reduction | symptoms of SARS-CoV-2 infection (SARS-CoV-2 infection): great improvement in most of the symptoms | body weight (SARS-CoV-2 infection; had lost twelve pounds within 14 days before): remained at constant weight | pIC50 (SARS-CoV-2; 72 hours post-inoculation, read-out: IC50, CPE assay (highest dose tested)): < 4.70 | replication of SARS-CoV-2 (SARS-CoV-2; CTO up to 5 μM): inhibited | pIC50 (SARS-CoV-2; FIG. 2, read-out: IC50, cytopathic effect (CPE) for SARS-CoV-2): < 4.70 | Maximum % Inhibition, CPE for SARS-CoV-2 (SARS-CoV-2; recorded <20 μM concentration): 29.03% | pEC50 [1]: 4.83
